Results reported in ChEMBL document CHEMBL1201862, “PubChem BioAssay data set” (2004).
Active and inactive are the calls of the source.

Experiments:
[1] = tested on: HeLa; experiment: HeLa cell cytotoxicity, dose response, cytotoxicity control, 48 h, plate reader, cherry-picks (AID 504942); format: functional, cell-based; details: Homo sapiens
[2] = target: T1, Acyl-homoserine lactone acylase PvdQ (Pseudomonas aeruginosa (strain LESB58), UniProt Q9I194); experiment: P. aeruginosa PvdQ acylase inhibitors, dose response, biochemical, fluorescence, plate reader and imaging, cherry-picks (AID 493231)
T1 sequence (Q9I194 whole entry): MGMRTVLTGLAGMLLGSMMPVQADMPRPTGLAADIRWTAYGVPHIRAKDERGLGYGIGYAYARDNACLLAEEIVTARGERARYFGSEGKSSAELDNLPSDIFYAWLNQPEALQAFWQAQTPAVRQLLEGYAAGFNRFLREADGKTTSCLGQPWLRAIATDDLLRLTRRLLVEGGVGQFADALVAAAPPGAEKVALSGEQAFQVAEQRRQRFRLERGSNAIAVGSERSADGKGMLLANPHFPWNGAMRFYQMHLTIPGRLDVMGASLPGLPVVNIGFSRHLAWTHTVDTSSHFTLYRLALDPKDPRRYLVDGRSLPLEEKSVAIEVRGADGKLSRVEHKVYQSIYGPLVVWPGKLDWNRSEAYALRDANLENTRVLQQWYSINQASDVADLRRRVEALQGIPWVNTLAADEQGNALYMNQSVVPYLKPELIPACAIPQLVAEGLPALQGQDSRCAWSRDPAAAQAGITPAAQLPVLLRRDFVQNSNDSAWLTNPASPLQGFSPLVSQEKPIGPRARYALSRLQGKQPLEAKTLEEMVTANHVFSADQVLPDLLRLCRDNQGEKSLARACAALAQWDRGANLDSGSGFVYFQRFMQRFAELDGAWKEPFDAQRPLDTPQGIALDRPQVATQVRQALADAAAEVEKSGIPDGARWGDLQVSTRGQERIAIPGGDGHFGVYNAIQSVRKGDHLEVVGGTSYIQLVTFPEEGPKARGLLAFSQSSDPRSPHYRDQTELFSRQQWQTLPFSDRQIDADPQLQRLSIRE

[3] = target: T2, DNA dC->dU-editing enzyme APOBEC-3A (Homo sapiens, UniProt P31941); experiment: SAR analysis of small molecule inhibitors of APOBEC3A DNA Deaminase via a fluorescence-based single-stranded DNA deaminase assay - Set 2.; format: functional; details: read-out: IC50_Mean
T2 sequence (P31941 whole entry): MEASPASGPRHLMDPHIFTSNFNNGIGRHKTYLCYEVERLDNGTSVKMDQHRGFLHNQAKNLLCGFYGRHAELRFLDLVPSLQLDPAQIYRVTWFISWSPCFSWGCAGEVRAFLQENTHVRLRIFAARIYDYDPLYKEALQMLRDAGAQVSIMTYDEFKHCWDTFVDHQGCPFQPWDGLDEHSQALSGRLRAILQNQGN

[4] = target: T2, DNA dC->dU-editing enzyme APOBEC-3A; experiment: Dose Response confirmation of small molecule APOBEC3A DNA Deaminase Inhibitors via a fluorescence-based single-stranded DNA deaminase assay. [Related pubchem assays (depositor defined):AID493011, AID493024]; format: functional
[5] = target: T3, DNA dC->dU-editing enzyme APOBEC-3G (Homo sapiens, UniProt Q9HC16); experiment: APOBEC3G deaminase inhibitors, SAR follow-up, biochemical, fluorescence, single-stranded DNA substrate (AID 602136); format: functional; details: read-out: IC50_Mean
T3 sequence (Q9HC16 whole entry): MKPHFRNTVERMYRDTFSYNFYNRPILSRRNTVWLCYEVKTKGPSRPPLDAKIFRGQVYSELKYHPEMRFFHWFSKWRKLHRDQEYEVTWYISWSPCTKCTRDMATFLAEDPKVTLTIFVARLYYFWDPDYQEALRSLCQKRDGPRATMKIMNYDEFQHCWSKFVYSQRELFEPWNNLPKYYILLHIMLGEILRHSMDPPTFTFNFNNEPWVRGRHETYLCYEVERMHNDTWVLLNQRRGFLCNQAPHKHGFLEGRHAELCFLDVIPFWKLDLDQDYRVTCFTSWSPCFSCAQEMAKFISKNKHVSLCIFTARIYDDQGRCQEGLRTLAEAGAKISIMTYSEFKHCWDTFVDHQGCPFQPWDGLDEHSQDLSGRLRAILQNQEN

[6] = target: T3, DNA dC->dU-editing enzyme APOBEC-3G; format: functional
[7] = target: T3, DNA dC->dU-editing enzyme APOBEC-3G; experiment: SAR analysis of small molecule inhibitors of APOBEC3G DNA Deaminase via a fluorescence-based single-stranded DNA deaminase assay - Set 2.; format: functional; details: read-out: IC50_Mean
[8] = target: T2, DNA dC->dU-editing enzyme APOBEC-3A; experiment: SAR analysis of small molecule inhibitors of APOBEC3A DNA Deaminase via a fluorescence-based single-stranded DNA deaminase assay.; format: functional; details: read-out: IC50_Mean
[9] = target: Latent membrane protein 1 (Human herpesvirus 4 (strain B95-8), UniProt P03230); experiment: TES1-eGFP NF-kB reporter inhibition versus Tet-On dsRED, dose response, selectivity assay for LMP1 NF-kB inhibitor project, imaging, HEK293T, dual-color eGFP/dsRED, cherry-picks (AID 588398); format: functional, cell-based
Latent membrane protein 1, sequence (P03230 whole entry): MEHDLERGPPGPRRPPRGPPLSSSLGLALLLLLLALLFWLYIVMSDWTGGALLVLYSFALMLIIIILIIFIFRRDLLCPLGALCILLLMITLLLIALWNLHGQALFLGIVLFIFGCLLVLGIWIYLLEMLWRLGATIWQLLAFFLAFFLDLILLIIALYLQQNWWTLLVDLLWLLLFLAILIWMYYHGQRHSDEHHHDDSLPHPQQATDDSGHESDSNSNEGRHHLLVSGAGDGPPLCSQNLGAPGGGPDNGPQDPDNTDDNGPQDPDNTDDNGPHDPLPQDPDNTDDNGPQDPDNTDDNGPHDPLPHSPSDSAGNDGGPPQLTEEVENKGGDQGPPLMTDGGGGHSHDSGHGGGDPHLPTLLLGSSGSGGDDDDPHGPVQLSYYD

[10] = target: Multidrug resistance protein CDR1 (Candida albicans, UniProt P43071); experiment: CaCDR1 efflux pump inhibitors in yeast, dose response, S. cerevisiae AD1-8u, singleplex, Cherry Pick1 hits (AID 588606); format: functional
Multidrug resistance protein CDR1, sequence (P43071 whole entry, looked up): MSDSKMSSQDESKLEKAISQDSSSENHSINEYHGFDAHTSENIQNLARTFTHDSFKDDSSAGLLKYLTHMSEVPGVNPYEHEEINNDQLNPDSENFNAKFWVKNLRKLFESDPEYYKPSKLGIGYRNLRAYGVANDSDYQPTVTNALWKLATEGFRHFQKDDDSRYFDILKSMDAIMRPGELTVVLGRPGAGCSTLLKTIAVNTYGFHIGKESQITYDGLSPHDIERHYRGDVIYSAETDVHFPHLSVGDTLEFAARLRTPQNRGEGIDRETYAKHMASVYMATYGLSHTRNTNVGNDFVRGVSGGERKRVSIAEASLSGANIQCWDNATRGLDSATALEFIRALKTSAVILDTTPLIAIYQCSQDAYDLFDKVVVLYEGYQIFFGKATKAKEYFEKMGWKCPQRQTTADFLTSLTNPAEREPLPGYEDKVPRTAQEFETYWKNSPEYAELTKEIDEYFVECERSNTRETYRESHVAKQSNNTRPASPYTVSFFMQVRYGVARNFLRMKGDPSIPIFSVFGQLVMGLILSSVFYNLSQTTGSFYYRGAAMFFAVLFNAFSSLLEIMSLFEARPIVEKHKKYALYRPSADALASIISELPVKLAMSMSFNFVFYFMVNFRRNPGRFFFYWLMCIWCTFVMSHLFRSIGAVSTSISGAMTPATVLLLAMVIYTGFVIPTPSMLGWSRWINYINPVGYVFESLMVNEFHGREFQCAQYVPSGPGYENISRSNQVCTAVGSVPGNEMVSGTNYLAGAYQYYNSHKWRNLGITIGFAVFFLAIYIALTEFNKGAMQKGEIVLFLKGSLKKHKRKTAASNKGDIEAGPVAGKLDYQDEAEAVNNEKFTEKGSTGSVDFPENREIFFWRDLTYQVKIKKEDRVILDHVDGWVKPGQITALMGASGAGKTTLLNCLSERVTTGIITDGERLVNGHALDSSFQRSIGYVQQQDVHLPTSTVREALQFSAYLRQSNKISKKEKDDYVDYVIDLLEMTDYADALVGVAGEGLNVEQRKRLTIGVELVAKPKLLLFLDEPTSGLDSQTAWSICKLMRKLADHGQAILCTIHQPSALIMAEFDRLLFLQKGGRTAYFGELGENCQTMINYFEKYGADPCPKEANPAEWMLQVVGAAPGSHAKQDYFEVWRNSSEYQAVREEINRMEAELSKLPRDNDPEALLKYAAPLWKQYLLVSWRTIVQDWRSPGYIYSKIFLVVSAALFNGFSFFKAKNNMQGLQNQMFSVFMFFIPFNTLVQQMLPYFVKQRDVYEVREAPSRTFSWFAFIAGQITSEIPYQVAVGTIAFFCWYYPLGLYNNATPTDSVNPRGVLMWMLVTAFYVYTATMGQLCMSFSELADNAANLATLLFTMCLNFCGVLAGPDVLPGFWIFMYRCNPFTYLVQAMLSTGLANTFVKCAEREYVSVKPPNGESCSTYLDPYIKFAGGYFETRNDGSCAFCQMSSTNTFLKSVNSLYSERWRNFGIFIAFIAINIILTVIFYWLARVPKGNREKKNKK

[11] = tested on: Candida albicans; experiment: growth inhibition of azole-resistant C. albicans, dose response, CaCi-8 strain, Alamar Blue, dry powder, set 2 (AID 488909); format: functional, organism-based
[12] = tested on: Candida albicans; experiment: growth inhibition of resistant C. albicans, dose response, CaCi-8, fluconazole, Alamar Blue, dry powder (AID 488807); format: functional, organism-based
[13] = tested on: Candida albicans; experiment: C. albicans growth inhibition with fluconazole, dose response, antifungal resistance reversal project, CaCi-2 strain, Alamar Blue, dry powder, set 2 (AID 488930); format: functional, organism-based
[14] = tested on: Candida albicans; experiment: fluconazole resistance reversal in C. albicans, dose response, CaCi-2 strain, Alamar Blue, dry powder, set 4 (AID 488943); format: functional, organism-based

Question: Which results are given for `N#CC(c1ccccc1)c1cccc(Cl)n1` (centres undefined)?
Answer: AC50 [1]: > 380 µM (inactive); AC50 [2]: 1.1 µM (active)

Question: How did the IC50 [3] turn out when `CCC(=O)Nc1cccc(-c2nnc(SCC(=O)NCc3ccco3)n2C)c1` was run?
Answer: 4.37 µM (active)

Question: And the IC50 [4]?
Answer: 1.07 µM (active)

Question: What about the IC50 [5] of the same compound?
Answer: 1.5 µM (active)

Question: What about the IC50 [6] of the same compound?
Answer: 5.36 µM (active)

Question: And the IC50 [7]?
Answer: 0.695 µM (active)

Question: What about the IC50 [8] of the same compound?
Answer: 1.93 µM (active)

Question: For `O=C1CN(C(=O)c2ccc(F)c(S(=O)(=O)N3CCOCC3)c2)c2ccccc2N1`, which AC50 [9] is on record?
Answer: 48.3 µM (active)

Question: How did the EC50 [10] turn out when `COc1ccc(-c2sc3cc4c(cc3c2-c2ccc(OCCN3CCCCC3)cc2)OCO4)cc1` was run?
Answer: 0.062 µM (active)

Question: For `O=C(c1ccc(Cl)cc1)N1CCN(c2ccccn2)CC1`, which AC50 [11] is on record?
Answer: 28.1 µM (active)

Question: And the AC50 [12]?
Answer: 0.64 µM (active)

Question: And the AC50 [13]?
Answer: 12 µM (active)

Question: What about the AC50 [14] of the same compound?
Answer: 24.5 µM (active)
